Structures can show the parent of a compound that is named as a salt.
Assays:
SARS-CoV-2 3CL^pro [1] = biological target: T1, SARS-CoV-2 3CL^pro (Severe acute respiratory syndrome coronavirus 2, UniProt P0DTD1); settings: incubation 5-40 min at 37 °C; kobs = (k inact·[I])/(K I + [I])
SARS-CoV-2 3CL^pro [2] = biological target: T1, SARS-CoV-2 3CL^pro; assay: Intact protein molecular weight analysis by mass spectrometry; format: binding; settings: 8.4 μM protease, 90 μM compound, 30 min at 37 °C
SARS-CoV-2 3CL^pro [3] = biological target: T1, SARS-CoV-2 3CL^pro; assay: Enzymatic inhibition assay of SARS-CoV-2 3CLpro by FRET; format: biochemical; settings: for inhibitory activity against SARS-CoV-2 3CL^pro (in words): concentrations 0, 1, 10, 100 μM
SARS-CoV-2 3CL^pro [4] = biological target: T1, SARS-CoV-2 3CL^pro; assay: biochemical; settings: IC50 against SARS-CoV-2 3CL^pro, incubation 3 min

Structure (SMILES) | IC50 (SARS-CoV-2 3CL^pro [3]) [nM] | inhibitory activity against SARS-CoV-2 3CL^pro (in words) (SARS-CoV-2 3CL^pro [3]) | further results
CC1=CC(=O)c2ccccc2C1=O [Entry 1, 2-Methyl-1,4-naphthoquinone (vitamin K3), reference compound] | – | – | K I (inhibition constant) (SARS-CoV-2 3CL^pro [1]): 112200 nM; proteins bound with one compound (SARS-CoV-2 3CL^pro [2]): 55%; proteins bound with two compounds (SARS-CoV-2 3CL^pro [2]): about 15%; proteins covalently bound (total) (SARS-CoV-2 3CL^pro [2]): about 70%
O=C1C=CC(=O)c2ccccc21 [Entry 2, 1,4-Naphthoquinone] | 690 ± 130 | – | –
O=C1C=C(Cl)C(=O)c2ccccc21 [Entry 3, 2-Chloro-1,4-naphthoquinone] | 1920 ± 490 | – | –
O=C1C=C(O)C(=O)c2ccccc21 [Entry 4, 2-Hydroxy-1,4-naphthoquinone] | > 100000 | almost lose their inhibitory activities | –
NC1=C(Cl)C(=O)c2ccccc2C1=O [Entry 5, 2-Amino-3-chloro-1,4-naphthoquinone] | > 100000 | almost lose their inhibitory activities | –
O=C1C=CC(=O)c2c(O)cccc21 [Entry 6, 5-Hydroxy-1,4-naphthoquinone] | 4110 ± 240 | – | –
O=C1C=CC(=O)c2c(O)ccc(O)c21 [Entry 7, 5,8-Dihydroxy-1,4-naphthoquinone] | 490 ± 110 | – | times higher inhibitory activity than Vitamin K3 (SARS-CoV-2 3CL^pro [3]; ratio of IC50 values against SARS-CoV-2 3CL^pro): 9.8 times; IC50 (SARS-CoV-2 3CL^pro [4]): 790 nM; K I (inhibition constant) (SARS-CoV-2 3CL^pro [1]): 3050 nM; proteins bound with one compound (SARS-CoV-2 3CL^pro [2]): 80%; proteins bound with two compounds (SARS-CoV-2 3CL^pro [2]): about 10%; proteins covalently bound (total) (SARS-CoV-2 3CL^pro [2]): about 90%
CC1=CC(=O)c2c(O)cccc2C1=O [Entry 8, 2-Methyl-5-hydroxy-1,4-naphthoquinone] | 1320 ± 330 | – | –
O=NN(CCCl)C(=O)NC1CCCCC1 [Lomustine, reference compound] | 5860 | – | –
N=C(N)c1ccc2cc(OC(=O)c3ccc(N=C(N)N)cc3)ccc2c1 [Nafamostat Mesylate, reference compound] | – | – | remaining activity at 100 µM (SARS-CoV-2 3CL^pro [3]; read-out: residual activity of the protease): ~60%
CC1=C(C/C=C(\C)CCC[C@H](C)CCC[C@H](C)CCCC(C)C)C(=O)c2ccccc2C1=O [Vitamin K1, reference compound] | – | no inhibition at the high and middle concentration | –
CC(=O)Oc1cc(C)c(OC(C)=O)c2ccccc12 [Vitamin K4, reference compound] | – | lost its inhibitory activity | –
COc1cc(C(=O)NS(=O)(=O)c2ccccc2C)ccc1Cc1cn(C)c2ccc(NC(=O)OC3CCCC3)cc12 [Zafirlukast, reference compound] | 46700 | – | –
